Experimental data published in US4124577A, “Nonapeptides and methods for their production” (Warner-Lambert, priority 1977, dated 1978).

System: LRF (luteinizing hormone releasing factor) induced luteinizing hormone (LH) release
Experiment: In vitro LRF antagonist test in rat anterior pituitary cell cultures
Type: cell-based
Description: Nonapeptides of this invention were screened for LRF antagonist activity in vitro using rat anterior pituitary cell cultures as described by Vale et. al. [Endocrinology, 91, 562 (1972)]. The inhibition of LRF (luteinizing hormone releasing factor) induced luteinizing hormone (LH) release into the culture medium is the endpoint in this in vitro bioassay.

“LRF: luteinizing hormone releasing factor, formed in the hypothalamus, stimulates the secretion of luteinizing hormone from the anterior pituitary (QHWSYGLRPG; Gonadoliberin-1; UniProt P01148 24-33, looked up) [reference compound]” was tested. Which “LH released into culture medium” value (LRF alone, molar conc. 5×10^-10 (saline control 16.22)) did it give?
Its value is 80.93 ng/mL.

How did the “LH released into culture medium” value (compound molar conc. 1×10^-7, LH released into culture medium, LRF control 5×10^-10) turn out when “N^α -t-butoxycarbonyl-N^im -benzyl-L-histidyl-L-tryptophyl-O-benzyl-L-seryl-O-benzyl-L-tyrosyl-D-phenylalanyl-L-leucyl-N^G -[(4-methylphenyl)sulfonyl]-L-arginyl-L-prolyl-glycinamide” was run?
The value was 24.91 ng/mL.

And the “% LH Release Inhibition” value (compound molar conc. 1×10^-7, LRF control 5×10^-10)?
Its value is 87%.

And the “LH released into culture medium” value (compound molar conc. 1×10^-8, LH released into culture medium, LRF control 5×10^-10)?
The value was 52.47 ng/mL.

And the “% LH Release Inhibition” value (compound molar conc. 1×10^-8, LRF control 5×10^-10)?
The value was 44%.
